The first test has as its system NICD (Notch intracellular domain) CSL-bla reporter in HeLa cells. Briefly: Notch assay (CellSensor T-REx NICD CSL-bla HeLa beta-lactamase reporter; Method 1 / Method 2). Type of test: cell-based. The following applies: Homo sapiens, 10 μM compound, Method 1 (10× compound prepared in assay medium, added to plated cells), read-out: inhibiton (%) at 10 μM. The gist of the method: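 HeLa cells carrying doxycycline-inducible NICD and a CSL-driven beta-lactamase reporter, 10^3 cells/well, were treated with compound plus doxycycline for 16-20 h at 37 °C. CCF4-AM substrate was loaded for 4 h at room temperature; background-subtracted blue (460 nm)/green (530 nm) emission ratio taken per well.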
In the case of `CCCC[C@H]1C(=O)N(CC2CCCCC2)CC2N(C(=O)OCc3cccc4ccccc34)O[C@@H](CC(N)=O)C(=O)N21` (stereo partly drawn) [Compound I-26, (3S,6S)-naphthalen-1-ylmethyl 3-(2-amino-2-oxoethyl)-6-butyl-8-(cyclohexylmethyl)-4,7-dioxohexahydropyrazino[2,1-c][1,2,4]oxadiazine-1(6H)-carboxylate], the inhibition at 10 µM amounted to 68.4%.

In the case of `CCCCCCOC(=O)N1O[C@@H](Cc2ccccc2)C(=O)N2C1CN(Cc1ccccc1)C(=O)[C@@H]2Cc1ccc(O)cc1` (stereo partly drawn) [Compound I-6, (35,6S)-hexyl 3,8-dibenzyl-6-(4-hydroxybenzyl)-4,7-dioxohexahydropyrazino[2,1-c][1,2,4]oxadiazine-1(6H)-carboxylate], the inhibition at 10 µM was 62.1%.

Consider `CCCC[C@H]1ON(C(=O)OCc2cccc3ccccc23)C2CN(C(C)C)C(=O)[C@H](Cc3ccc(O)cc3)N2C1=O` (stereo partly drawn) [Compound I-12, (3R,6S)-naphthalen-1-ylmethyl 3-butyl-6-(4-hydroxybenzyl)-8-isopropyl-4,7-dioxohexahydropyrazino[2,1-c][1,2,4]oxadiazine-1(6H)-carboxylate], for which the inhibition at 10 µM came to 71%.

Staying with this test, now noted: Homo sapiens, 10 μM compound, Method 2 (40 nL of 1000× compound added to plate with Echo), read-out: inhibiton (%) at 10 μM.
With `O=C(NCCc1ccccc1)[C@H](Cc1ccccc1)N1CC2N(C(=O)OCCc3ccc(O)cc3)O[C@H](Cc3ccc(O)cc3)C(=O)N2[C@@H](Cc2ccc(O)cc2)C1=O` (stereo partly drawn) [Compound I-116, 4-hydroxyphenethyl (3R,6S)-3,6-bis(4-hydroxybenzyl)-4,7-dioxo-8-((S)-1-oxo-1-(phenethylamino)-3-phenylpropan-2-yl)hexahydropyrazino[2,1-c][1,2,4]oxadiazine-1(6H)-carboxylate], the inhibition at 10 µM was determined as 62.5%.

In the case of `CC(C)CCNC(=O)[C@H](Cc1ccc(O)cc1)N1CC2N(C(=O)OCCc3ccc(O)cc3)O[C@H](Cc3ccccc3)C(=O)N2[C@@H](Cc2ccc(O)cc2)C1=O` (stereo partly drawn) [Compound I-108, 4-hydroxyphenethyl (3R,6S)-3-benzyl-6-(4-hydroxybenzyl)-8-((S)-3-(4-hydroxyphenyl)-1-(isopentylamino)-1-oxopropan-2-yl)-4,7-dioxohexahydropyrazino[2,1-c][1,2,4]oxadiazine-1(6H)-carboxylate], the inhibition at 10 µM came out at 72.4%.

As for `CC(C)C[C@H]1ON(C(=O)OCc2ccccc2)C2CN(C3CCN(C)CC3)C(=O)[C@H](CC3CCCCC3)N2C1=O` (stereo partly drawn) [Compound I-140, benzyl (3R,6S)-6-(cyclohexylmethyl)-3-isobutyl-8-(1-methylpiperidin-4-yl)-4,7-dioxohexahydropyrazino [2,1-c][1,2,4]oxadiazine-1(6H)-carboxylate], the inhibition at 10 µM is 60.9%.

`O=C(NCCO)[C@H](Cc1ccccc1)N1CC2N(C(=O)OCCc3ccc(O)cc3)O[C@H](Cc3ccccc3)C(=O)N2[C@@H](Cc2ccccc2)C1=O` (stereo partly drawn) [Compound I-80, 4-hydroxyphenethyl (3R,6S)-3,6-dibenzyl-8-(S)-1-(2-hydroxyethyl)amino)-1-oxo-3-phenylpropan-2-yl)-4,7-dioxohexahydropyrazino[2,1-c][1,2,4]oxadiazine-1(6H)-carboxylate]: the inhibition at 10 µM was 63%.

On to `O=C(NCCc1ccccc1)[C@H](Cc1ccccc1)N1CC2N(C(=O)OCCc3ccc(O)cc3)O[C@H](Cc3ccc(O)cc3)C(=O)N2[C@@H](Cc2ccccc2)C1=O` (stereo partly drawn) [Compound I-83, 4-hydroxyphenethyl (3R,6S)-6-benzyl-3-(4-hydroxybenzyl)-4,7-dioxo-8-((S)-1-oxo-1-(phenethylamino)-3-phenylpropan-2-yl)hexahydropyrazino [2,1-c][1,2,4]oxadiazine-1(6H)-carboxylate], for which the inhibition at 10 µM came to 76.2%.

In the case of `CC(C)CCNC(=O)[C@H](Cc1ccc(O)cc1)N1CC2N(C(=O)OCCC(C)C)O[C@H](Cc3ccccc3)C(=O)N2[C@@H](Cc2ccc(O)cc2)C1=O` (stereo partly drawn) [Compound I-107, isopentyl (3R,6S)-3-benzyl-6-(4-hydroxybenzyl)-8-((S)-3-(4-hydroxyphenyl)-1-(isopentylamino)-1-oxopropan-2-yl)-4,7-dioxohexahydropyrazino[2,1-c][1,2,4]oxadiazine-1(6H)-carboxylate], the inhibition at 10 µM turned out to be 61.1%.

`NC(=O)CC[C@H]1C(=O)N([C@@H](Cc2ccccc2)C(=O)NCCCc2ccccc2)CC2N(C(=O)OCCc3ccccc3)O[C@H](Cc3ccccc3)C(=O)N21` (stereo partly drawn) [Compound I-125, phenethyl (3R,6S)-6-(3-amino-3-oxopropyl)-3-benzyl-4,7-dioxo-8-((S)-1-oxo-3-phenyl-1-((3-phenylpropyl)amino)propan-2-yl)hexahydropyrazino [2,1-c][1,2,4]oxadiazine-1(6H)-carboxylate]: the inhibition at 10 µM was 59.6%.

In the case of `NCCCC[C@H]1C(=O)N(CC2CCCCC2)CC2N(C(=O)OCC3CCCCC3)O[C@H](Cc3ccccc3)C(=O)N21` (stereo partly drawn) [Compound I-29, (3R,6S)-cyclohexylmethyl 6-(4-aminobutyl)-3-benzyl-8-(cyclohexylmethyl)-4,7-dioxohexahydropyrazino[2,1-c][1,2,4]oxadiazine-1(6H)-carboxylate], the inhibition at 10 µM stood at 101%.

Take `CC[C@H](C)OC(=O)N1O[C@H](CC2CCCCC2)C(=O)N2C1CN(CCc1ccccc1)C(=O)[C@@H]2CCCCN` (stereo partly drawn) [Compound I-38, (3R,6S)-(S)-sec-butyl 6-(4-aminobutyl)-3-(cyclohexylmethyl)-4,7-dioxo-8-phenethylhexahydropyrazino [2,1-c][1,2,4]oxadiazine-1(6H)-carboxylate]: the inhibition at 10 µM came to 97.3%.

In the case of `CC[C@H](C)[C@H]1C(=O)N(CCc2cccc3ccccc23)CC2N(C(=O)OCCc3ccc(O)cc3)O[C@H](Cc3ccc(O)cc3)C(=O)N21` (stereo partly drawn) [Compound I-46, (3R,6S)-4-hydroxyphenethyl 6-((S)-sec-butyl)-3-(4-hydroxybenzyl)-8-(2-(naphthalen-1-yl)ethyl)-4,7-dioxohexahydropyrazino[2,1-c][1,2,4]oxadiazine-1(6H)-carboxylate], the inhibition at 10 µM was found to be 75.6%.

For `CC(C)CCOC(=O)N1O[C@H](C)C(=O)N2C1CN([C@@H](Cc1ccccc1)C(=O)NCCC(N)=O)C(=O)[C@@H]2Cc1ccccc1` (stereo partly drawn) [Compound I-84, isopentyl (3R,6S)-8-((S)-1-((3-amino-3-oxopropyl)amino)-1-oxo-3-phenylpropan-2-yl)-6-benzyl-3-methyl-4,7-dioxohexahydro-pyrazino[2,1-c] [1,2,4]oxadiazine-1(6H)-carboxylate], the inhibition at 10 µM came out at 78.4%.

With `CC(C)CCOC(=O)N1O[C@H](C)C(=O)N2C1CN([C@@H](Cc1ccccc1)C(=O)NCCO)C(=O)[C@@H]2Cc1ccccc1` (stereo partly drawn) [Compound I-88, isopentyl (3R,6S)-6-benzyl-8-((S)-1-((2-hydroxyethyl)amino)-1-oxo-3-phenylpropan-2-yl)-3-methyl-4,7-dioxohexahydropyrazino[2,1-c][1,2,4]oxadiazine-1(6H)-carboxylate], the inhibition at 10 µM worked out at 63.9%.

As to `CC(C)C[C@@H](C(=O)NCCc1ccccc1)N1CC2N(C(=O)OCCc3ccccc3)O[C@H](Cc3ccc(O)cc3)C(=O)N2[C@@H](Cc2ccc(O)cc2)C1=O` (stereo partly drawn) [Compound I-115, phenethyl (3R,6S)-3,6-bis(4-hydroxybenzyl)-8-((S)-4-methyl-1-oxo-1-(phenethylamino)pentan-2-yl)-4,7-dioxohexahydropyrazino[2,1-c][1,2,4]oxadiazine-1(6H)-carboxylate], the inhibition at 10 µM was 51.1%.

Values taken from patent US20230374034A1, “NOVEL BICYCLIC COMPOUNDS” (PRISM BIOLAB CO., LTD., priority 2020, published 2023).
